The record followed here is patent US11691972B2, “Compounds for targeted degradation of BRD9” (C4 Therapeutics, Inc., priority 2020, dated 2023).

For orientation: DC50 means the concentration giving 50% degradation.

Where two headings read alike, the source gives them in different places.

In this experiment the target is T1, BRD9 (Homo sapiens, UniProt Q9H8M2).
T1 sequence (Q9H8M2 1-597): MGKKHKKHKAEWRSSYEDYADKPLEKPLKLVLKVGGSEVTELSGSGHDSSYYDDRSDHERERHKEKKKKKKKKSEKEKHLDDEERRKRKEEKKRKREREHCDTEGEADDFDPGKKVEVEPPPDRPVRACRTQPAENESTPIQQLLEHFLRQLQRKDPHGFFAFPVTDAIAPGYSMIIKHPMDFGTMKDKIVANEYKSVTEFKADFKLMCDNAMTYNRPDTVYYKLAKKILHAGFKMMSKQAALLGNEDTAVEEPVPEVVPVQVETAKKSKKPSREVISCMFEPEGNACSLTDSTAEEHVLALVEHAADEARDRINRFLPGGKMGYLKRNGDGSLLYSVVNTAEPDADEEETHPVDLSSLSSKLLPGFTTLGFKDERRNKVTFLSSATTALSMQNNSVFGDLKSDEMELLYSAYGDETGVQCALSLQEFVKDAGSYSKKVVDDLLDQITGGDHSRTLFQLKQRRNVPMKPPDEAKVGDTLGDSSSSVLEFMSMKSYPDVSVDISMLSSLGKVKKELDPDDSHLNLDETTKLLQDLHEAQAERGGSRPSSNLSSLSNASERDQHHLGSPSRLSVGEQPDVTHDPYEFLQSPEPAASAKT
In words: HiBiT BRD9 degradation assay in 293T.166 (BRD9-HiBiT) cells. The experiment is classed as cell-based. More on the design: endogenously expressing BRD9 with HiBiT fusion tag via CRISPR; host or cells: 293T.166 (BRD9-HiBiT), also expressing LgBiT ectopically. As to conditions: 293T.166 cells, 2.0 hours, class symbols, read-out: HiBiT-Degradation 293T.166 BRD9 2.0 hours (DC50). As to the method:
Selected compounds were tested in a BRD9 degradation assay using the HiBit Method.
Dulbecco's modified Eagle medium (DMEM) without phenol red and fetal bovine serum (FBS) were purchased from Gibco (Grand Island, N.Y., USA). Nano-Glo® HiBiT Lytic Assay System was purchased from Promega (Madison, Wis., USA). 293T.166 (BRD9-HiBiT) cell line, endogenously expressing BRD9 with HiBiT fusion tag via CRISPR and ectopically expressing LgBiT tag, was purchased from Promega (Madison, Wis., USA). 293T.167 (BRD7-HiBiT) cell line, endogenously expressing BRD7 with HiBiT fusion tag via CRISPR and ectopically expressing LgBiT tag, was purchased from Promega (Madison, Wis., USA). 293T.92 (BRD4-HiBiT) cell line, endogenously expressing BRD4 with HiBiT fusion tag via CRISPR and ectopically expressing LgBiT tag, was generated in-house. Cell culture flasks and 384-well microplates were acquired from VWR (Radnor, Pa., USA).
BRD9 degradation was determined based on quantification of luminescent signal using Nano-Glo® HiBiT Lytic Assay kit. Test compounds were added to the 384-well plate from a top concentration of 10 μM with 11 points, half log titration in duplicates. 293T.166 cells were added into 384-well plates at a cell density of 10,000 cells per well. The plates were kept at 37° C. with 5% CO2 for 2 hours. BRD7 and BRD4 degradation was similarly determined with 293T.167 cells and 293T.92 cells, respectively. The cells treated in the absence of the test compound were the negative control and the cells without Nano-Glo® HiBiT Lytic reagent were the positive control. After 2-hour incubation, Nano-Glo® HiBiT Lytic Assay reagents were added to the cells. Luminescence was acquired on EnVision™ Multilabel Reader (PerkinElmer, Santa Clara, Calif., USA).

For the molecule `COc1cc(-c2cn(C)c(=O)c3[nH]ncc23)cc(Cl)c1CN1CCc2c(cccc2NC2CCN(c3ccc(NC4CCC(=O)NC4=O)cc3)CC2)C1` (stereo not shown) [Compound 171, 3-[4-[4-[[2-[[2-chloro-6-methoxy-4-(6-methyl-7-oxo-1H-pyrazolo[3,4-c]pyridin-4-yl)phenyl]methyl]-3,4-dihydro-1H-isoquinolin-5-yl]amino]-1-piperidyl]anilino]piperidine-2,6-dione], where the note is “Table 1”, the DC50 was less than 100 nM. As to `COc1cc(-c2cn(C)c(=O)c3[nH]ncc23)cc(OC)c1CN1CCN(C(=O)CC2CCN(c3ccc(NC4CCC(=O)NC4=O)cc3Cl)CC2)CC1` (stereo not shown) [Compound 67], the 50% degradation concentration (DC50) (Table 1) was less than 100 nM.

Regarding `COc1cc(-c2cn(C)c(=O)c3cnccc23)cc(Cl)c1CN1CCc2c(cccc2CN2CCC(c3ccc(NC4CCC(=O)NC4=O)cc3)C(F)(F)C2)C1` (stereo not shown) [Compound 99], the DC50 (Table 1) is less than 100 nM.

For `COc1cc(-c2cn(C)c(=O)c3[nH]ncc23)cc(Cl)c1CN1CCC(N(C)C(=O)N2CCC(c3ccc(OC4CCC(=O)NC4=O)cc3)CC2)CC1` (stereo not shown) [Compound 120], the DC50 (Table 1) was less than 100 nM. Same read-out and setting: then `COc1cc(-c2cn(C)c(=O)c3[nH]ncc23)cc(F)c1CN1CCN(C(=O)CN2CCC(c3ccc(NC4CCC(=O)NC4=O)cc3Cl)CC2)CC1` (stereo not shown) [Compound 24], with less than 100 nM; and `COc1cc(-c2cn(C)c(=O)c3[nH]ncc23)cc(OC)c1CN1CCN(CC(=O)N2CCC(c3ccc(NC4CCC(=O)NC4=O)cc3)CC2)CC1` (stereo not shown) [Compound 37, 3-[4-[1-[2-[4-[[2,6-dimethoxy-4-(6-methyl-7-oxo-1H-pyrazolo[3,4-c]pyridin-4-yl)phenyl]methyl]piperazin-1-yl]acetyl]-4-piperidyl]anilino]piperidine-2,6-dione], with less than 100 nM. On the same count and under the same terms, as for `COc1cc(-c2cn(C)c(=O)c(C)c2C)cc(Cl)c1CN1CCc2c(CC3CCN(c4ccc(NC5CCC(=O)NC5=O)cc4F)CC3)cccc2C1` (stereo not shown) [Compound 109], the figure is less than 100 nM; as for `COc1cc(-c2cn(C)c(=O)c3cnccc23)cc(OC)c1CN1CCC(N2CCN(c3ccc(NC4CCC(=O)NC4=O)cc3F)CC2)C(F)(F)C1` (stereo not shown) [Compound 184], less than 100 nM; as for `COc1cc(-c2cn(C)c(=O)c3cnccc23)cc(Cl)c1C(=O)N1CCC(C2CCN(c3ccc(NC4CCC(=O)NC4=O)cc3F)CC2)CC1` (stereo not shown) [Compound 209], less than 100 nM. On the same count and under the same terms, as for `COc1cc(-c2cn(C)c(=O)c3[nH]ncc23)cc(OC)c1CN1CCC(OC(=O)N2CCC(c3ccc(NC4CCC(=O)NC4=O)cc3)CC2)CC1` (stereo not shown) [Compound 94, [1-[[2,6-dimethoxy-4-(6-methyl-7-oxo-1H-pyrazolo[3,4-c]pyridin-4-yl)phenyl]methyl]-4-piperidyl] 4-[4-[(2,6-dioxo-3-piperidyl)amino]phenyl]piperidine-1-carboxylate], the figure is less than 100 nM; as for `CC(c1ccc(-c2cn(C)c(=O)c3cc(F)ccc23)cc1OC(F)(F)F)N1CCC(C2CCN(c3ccc(NC4CCC(=O)NC4=O)cc3F)CC2)CC1` (stereo not shown) [Compound 93], less than 100 nM. As to `COc1cc(-c2cn(C)c(=O)c3cnccc23)cc(F)c1CN1CCC(C2CCN(c3ccc(NC4CCC(=O)NC4=O)cc3C(F)(F)F)CC2)CC1` (stereo not shown) [Compound 87], for the setting “Table 1”, the DC50 was less than 100 nM. The same measure, in the same setting: as for `COc1cc(-c2cn(C)c(=O)c3[nH]ncc23)cc(Cl)c1C(=O)N1CCc2c(CC3CCN(c4ccc(NC5CCC(=O)NC5=O)cc4F)CC3)ccc(F)c2C1` (stereo not shown) [Compound 240], the figure is less than 100 nM; as for `COc1cc(-c2cn(C)c(=O)c3cnccc23)cc(OC)c1CN1CCN(C(=O)CC2CCN(c3ccc(NC4CCC(=O)NC4=O)cc3C(F)(F)F)CC2)CC1` (single isomer, unassigned) [Compound 56], less than 100 nM. On to `Cn1cc(-c2ccc(CN3CCC(N4CCN(c5ccc(NC6CCC(=O)NC6=O)nc5)CC4)C(F)(F)C3)c(OC(F)(F)F)c2)c2ccncc2c1=O` (stereo not shown) [Compound 253, 3-[[5-[4-[3,3-difluoro-1-[[4-(2-methyl-1-oxo-2,7-naphthyridin-4-yl)-2-(trifluoromethoxy)phenyl]methyl]-4-piperidyl]piperazin-1-yl]-2-pyridyl]amino]piperidine-2,6-dione], for which the DC50 (Table 2) is less than 100 nM. For `COc1cc(-c2cn(C)c(=O)c3ccccc23)cc(OC)c1C(=O)N1CCC(N(C)C(=O)N2CCC(c3ccc(NC4CCC(=O)NC4=O)cc3)CC2)CC1` (stereo not shown) [Compound 135], the 50% degradation concentration (DC50) (Table 1) was less than 100 nM.

As for `COc1cc(-c2cn(C)c(=O)c3[nH]ncc23)cc(F)c1CN1CCN(C(=O)CN2CCC(c3ccc(NC4CCC(=O)NC4=O)cc3C(F)(F)F)CC2)CC1` (stereo not shown) [Compound 23], the DC50 (Table 1) is less than 100 nM. The same measure, in the same setting: as for `COc1cc(-c2cc(C)c(=O)n(C)c2)cc(OC)c1CN1CCN(C(=O)CN2CCC(c3ccc(NC4CCC(=O)NC4=O)cc3)CC2)CC1` (stereo not shown) [Compound 31], the figure is less than 100 nM.

Turning to `COc1cc(-c2cn(C)c(=O)c3[nH]ncc23)cc(F)c1CN1CCN(C(=O)Cc2c(F)cc(NC3CCC(=O)NC3=O)cc2F)CC1` (stereo not shown) [Compound 164, 3-[3,5-difluoro-4-[2-[4-[[2-fluoro-6-methoxy-4-(6-methyl-7-oxo-1H-pyrazolo[3,4-c]pyridin-4-yl)phenyl]methyl]piperazin-1-yl]-2-oxo-ethyl]anilino]piperidine-2,6-dione], where the note is “Table 1”, the 50% degradation concentration (DC50) was in the range of 100 to 500 nM. On the same count and under the same terms, then `COc1cc(-c2cn(C)c(=O)c3[nH]ncc23)cc(F)c1CN1CCN(C(=O)CN2CCC(c3ccc(NC4CCC(=O)NC4=O)cc3)C(F)(F)C2)CC1` (stereo not shown) [Compound 33], with less than 100 nM; and `COc1cc(-c2cn(C)c(=O)c(C)c2C)cc(OC)c1CN1CCC(N2CCN(c3ccc(NC4CCC(=O)NC4=O)nc3)CC2)C(F)(F)C1` (stereo not shown) [Compound 195], with less than 100 nM.

With `COc1cc(-c2cn(C)c(=O)c(C)c2C)cc(OC)c1CN1CCN(C(=O)CC2CCN(c3ccc(NC4CCC(=O)NC4=O)cc3C(F)(F)F)CC2)CC12CC2` (stereo not shown) [Compound 60], for the setting “Table 1”, the DC50 was less than 100 nM. Same read-out and setting: then `COc1cc(-c2cn(C)c(=O)c(C)c2C)cc(OC)c1CN1CCc2c(CC3CCN(c4ccc(NC5CCC(=O)NC5=O)cc4C(F)(F)F)CC3)cccc2C1` (stereo not shown) [Compound 108], with less than 100 nM. The same measure, in the same setting: then `COc1cc(-c2cn(C)c(=O)c3[nH]ncc23)cc(OC)c1CN1CC(NC(=O)CN2CCC(c3ccc(NC4CCC(=O)NC4=O)cc3)CC2)C1` (stereo not shown) [Compound 5], with less than 100 nM; and `COc1cc(-c2cn(C)c(=O)c3[nH]ncc23)cc(OC)c1CN1CCc2c(CC3CCN(c4ccc(NC5CCC(=O)NC5=O)cc4)CC3)cccc2C1` (stereo not shown) [Compound 104, 3-[4-[4-[[2-[[2,6-dimethoxy-4-(6-methyl-7-oxo-1H-pyrazolo[3,4-c]pyridin-4-yl)phenyl]methyl]-3,4-dihydro-1H-isoquinolin-5-yl]methyl]-1-piperidyl]anilino]piperidine-2,6-dione], with less than 100 nM. Same read-out and setting: as for `COc1cc(-c2cn(C)c(=O)c(C)c2C)cc(OC)c1C=C1CCN(C(=O)CC2CCN(c3ccc(NC4CCC(=O)NC4=O)cc3F)CC2)CC1` (stereo not shown) [Compound 162], the figure is less than 100 nM; as for `Cc1c(-c2ccc(CN3CCC(C4CCN(c5ccc(NC6CCC(=O)NC6=O)nc5)CC4)CC3)c(OC(F)(F)F)c2)cn(C)c(=O)c1C` (stereo not shown) [Compound 90], less than 100 nM. Turning to `COc1cc(-c2cn(C)c(=O)c3cnccc23)cc(Cl)c1CN1CCC(C2CCN(c3ccc(NC4CCC(=O)NC4=O)cc3Cl)CC2)CC1` (stereo not shown) [Compound 77], the DC50 (Table 1) was less than 100 nM.
